Like-named read-outs stand apart in the source and are kept apart here.
Legend:
human lactase = human lactase (Homo sapiens, UniProt P09848); settings: in vitro; cited from earlier work
plasma glucose [1] = settings: glucose = 100, cited from earlier work
plasma glucose [2] = settings: untreated diabetics, Gannon et al; cited from earlier work
human sucrase = human sucrase (Homo sapiens, UniProt P14410); settings: in vitro; cited from earlier work
maltase = settings: in vitro; cited from earlier work
blood glucose = settings: diabetic volunteers after normal insulin or oral agents, vs glucose (GI=100); cited from earlier work
rabbit maltase = settings: in vitro; cited from earlier work
rabbit sucrase = rabbit sucrase (Oryctolagus cuniculus, UniProt P07768); settings: in vitro; cited from earlier work
Chain of rabbit sucrase (P07768 whole entry): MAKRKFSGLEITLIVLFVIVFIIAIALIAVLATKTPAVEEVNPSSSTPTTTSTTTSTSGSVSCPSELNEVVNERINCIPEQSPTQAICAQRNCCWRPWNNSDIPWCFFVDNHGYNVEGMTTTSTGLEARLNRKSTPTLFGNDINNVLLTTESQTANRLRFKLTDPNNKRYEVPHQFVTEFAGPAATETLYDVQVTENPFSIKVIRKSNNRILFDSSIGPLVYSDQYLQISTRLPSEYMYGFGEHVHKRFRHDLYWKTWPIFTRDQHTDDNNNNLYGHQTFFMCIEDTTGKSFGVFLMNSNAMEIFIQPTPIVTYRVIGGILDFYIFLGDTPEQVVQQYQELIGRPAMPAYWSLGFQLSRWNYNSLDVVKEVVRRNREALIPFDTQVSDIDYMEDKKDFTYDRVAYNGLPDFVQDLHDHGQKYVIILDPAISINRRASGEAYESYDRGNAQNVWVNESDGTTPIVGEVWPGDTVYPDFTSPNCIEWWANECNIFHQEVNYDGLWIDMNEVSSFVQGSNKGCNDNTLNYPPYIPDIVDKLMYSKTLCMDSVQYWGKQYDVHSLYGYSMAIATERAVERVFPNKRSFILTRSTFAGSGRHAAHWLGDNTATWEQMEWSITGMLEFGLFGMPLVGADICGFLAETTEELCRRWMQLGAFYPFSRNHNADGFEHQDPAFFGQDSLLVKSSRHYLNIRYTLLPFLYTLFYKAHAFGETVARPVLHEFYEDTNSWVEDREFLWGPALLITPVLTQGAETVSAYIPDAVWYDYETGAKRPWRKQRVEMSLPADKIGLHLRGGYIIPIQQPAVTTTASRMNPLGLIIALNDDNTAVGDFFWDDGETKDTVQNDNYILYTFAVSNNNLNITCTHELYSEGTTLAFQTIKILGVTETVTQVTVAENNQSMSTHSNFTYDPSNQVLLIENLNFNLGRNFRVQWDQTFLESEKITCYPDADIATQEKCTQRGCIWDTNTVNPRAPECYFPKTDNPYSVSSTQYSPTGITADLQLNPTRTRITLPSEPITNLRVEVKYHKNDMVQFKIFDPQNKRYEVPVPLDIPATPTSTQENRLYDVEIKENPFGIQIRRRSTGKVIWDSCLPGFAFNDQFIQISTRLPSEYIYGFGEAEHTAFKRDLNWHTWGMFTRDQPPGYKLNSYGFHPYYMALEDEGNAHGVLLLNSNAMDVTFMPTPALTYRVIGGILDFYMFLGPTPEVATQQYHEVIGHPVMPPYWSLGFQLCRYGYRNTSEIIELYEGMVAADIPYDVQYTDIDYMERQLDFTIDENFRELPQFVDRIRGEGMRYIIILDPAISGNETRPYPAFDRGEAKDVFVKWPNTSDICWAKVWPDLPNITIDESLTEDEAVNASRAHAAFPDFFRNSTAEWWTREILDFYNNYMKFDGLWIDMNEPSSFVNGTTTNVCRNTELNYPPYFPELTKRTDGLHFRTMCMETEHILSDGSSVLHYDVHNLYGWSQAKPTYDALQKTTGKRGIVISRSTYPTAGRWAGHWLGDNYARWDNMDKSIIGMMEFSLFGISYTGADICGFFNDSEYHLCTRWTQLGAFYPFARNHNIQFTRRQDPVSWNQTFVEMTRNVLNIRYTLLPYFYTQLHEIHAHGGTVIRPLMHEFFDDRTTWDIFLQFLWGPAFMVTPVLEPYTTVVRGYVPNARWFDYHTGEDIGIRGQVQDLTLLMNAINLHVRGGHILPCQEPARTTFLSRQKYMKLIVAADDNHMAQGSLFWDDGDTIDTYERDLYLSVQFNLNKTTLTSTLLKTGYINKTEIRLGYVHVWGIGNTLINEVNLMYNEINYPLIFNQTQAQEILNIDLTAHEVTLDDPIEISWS

human small intestine = settings: cited from earlier work
plasma glucose [3] = assay: OTT, aqueous solutions (25 g in 100 g water), type 2 diabetic subject (DM2); assay type: in vivo, human
Experimental: (§1) Test articles were aqueous solutions (in 200 g water) of 50 g of total carbohydrates, which were prepared early in the morning before the test. All of the same protocol criteria were applied for the test, as described in Example 1 above, except that times for blood samples were 0, 30, 45, 60, 90, 120, and 180 minutes. The test subjects were Subject #1, described above, and Subject #2, a healthy person (BMI=27.7 kg/m^2). See FIGS. 3 and 2, respectively, for results of their OTT's.
Calculation of estimated caloric value (ECV) demands some explanation here, as the calculation requires acceptance of some reasonable assumptions: • GI values for lactose monohydrate, fructose, sucrose and oat starch are 46, 23, 64, and 100, respectively. • Caloric values for lactose monohydrate, fructose, sucrose and oat starch are 3.8, 3.7, 3.9, and 3.7 kcal/g, respectively. • The order for complete active absorption of sugar mixtures from the small intestine to the bloodstream is fructose>starch (as maltose and α-dextrins)>sucrose>lactose. • Passive absorption of unhydrolyzed disaccharides is assumed to be zero for these calculations. • Disaccharides not actively absorbed pass to the colon, where they are fully degraded by microflora. • 78% of the disaccharides form short chain fatty acids (SCFA's), which are fully absorbed and used by the body with 50%×0.85=42.5% energy efficiency vs glucose (Livesey, Int J Food Sci Nutr, 44, 221-241, 1993). • 22% of the disaccharides are converted to biomass, which is calorically unavailable to the host (Weber et al, J Lab Clin Med, 110, 259-263, 1987). • NB—Starch (not part of the sweetener) which passes to the colon and is degraded microbially subtracts energy value from the sweetener, a component of which (lactose) caused it to pass to the colon.
The type 2 diabetic subject (DM2) was a person (BMI=32.8 kg/m^2), who was trying to control their diabetes without insulin or oral medications. Their daily drug regimen included Premarin®, Prempro®, Xenical®, and Lipitor®, all taken after OTT was completed each day. […]

plasma glucose [4] = assay: OTT, aqueous sugar solutions (50 g in 200 g water), Subject #1; assay type: in vivo, human; settings: Subject #1, N=3
Experimental: The test subject (Subject #1) was a person in good health, with a body mass index (BMI) equal to 28.6 kg/m^2. The subject was required to exercise moderately at least 30 minutes each day before testing, sleep at least 7 hours the previous night, and fast for no less than 12 hours prior to oral tolerance testing (OTT) early the next morning. Water was restricted 1.5 hours prior to testing, and only small sips of water were allowed infrequently during OTT. The test article, described below, was ingested as quickly as possible after the time 0 blood sample was obtained. Subsequent blood samples were taken at 30, 60, 90, 120, 150, and 180 minutes, and plasma glucose measurements were recorded in units of mg/dL immediately each time using a hand-held glucometer (At•Last model, Amira Medical, Scotts Valley, Calif. 95066). The subject abstained from food and remained sedentary during the 3-hour test. Clinical observations were noted and recorded continuously.
as §1, with “See FIGS. 3 and 2, respectively, for results of their OTT's.” left out

rats [5] = settings: cited from earlier work
rats [6] = settings: cited from earlier work; for body fat lowering vs controls: pair-fed rats
[7] = pair-feeding, lactose 30% of diet (Février 1969)
[8] = weanling male rats, 12% lactose, six weeks (Ali and Evans 1971)

Chain of human lactase (P09848 869-1927): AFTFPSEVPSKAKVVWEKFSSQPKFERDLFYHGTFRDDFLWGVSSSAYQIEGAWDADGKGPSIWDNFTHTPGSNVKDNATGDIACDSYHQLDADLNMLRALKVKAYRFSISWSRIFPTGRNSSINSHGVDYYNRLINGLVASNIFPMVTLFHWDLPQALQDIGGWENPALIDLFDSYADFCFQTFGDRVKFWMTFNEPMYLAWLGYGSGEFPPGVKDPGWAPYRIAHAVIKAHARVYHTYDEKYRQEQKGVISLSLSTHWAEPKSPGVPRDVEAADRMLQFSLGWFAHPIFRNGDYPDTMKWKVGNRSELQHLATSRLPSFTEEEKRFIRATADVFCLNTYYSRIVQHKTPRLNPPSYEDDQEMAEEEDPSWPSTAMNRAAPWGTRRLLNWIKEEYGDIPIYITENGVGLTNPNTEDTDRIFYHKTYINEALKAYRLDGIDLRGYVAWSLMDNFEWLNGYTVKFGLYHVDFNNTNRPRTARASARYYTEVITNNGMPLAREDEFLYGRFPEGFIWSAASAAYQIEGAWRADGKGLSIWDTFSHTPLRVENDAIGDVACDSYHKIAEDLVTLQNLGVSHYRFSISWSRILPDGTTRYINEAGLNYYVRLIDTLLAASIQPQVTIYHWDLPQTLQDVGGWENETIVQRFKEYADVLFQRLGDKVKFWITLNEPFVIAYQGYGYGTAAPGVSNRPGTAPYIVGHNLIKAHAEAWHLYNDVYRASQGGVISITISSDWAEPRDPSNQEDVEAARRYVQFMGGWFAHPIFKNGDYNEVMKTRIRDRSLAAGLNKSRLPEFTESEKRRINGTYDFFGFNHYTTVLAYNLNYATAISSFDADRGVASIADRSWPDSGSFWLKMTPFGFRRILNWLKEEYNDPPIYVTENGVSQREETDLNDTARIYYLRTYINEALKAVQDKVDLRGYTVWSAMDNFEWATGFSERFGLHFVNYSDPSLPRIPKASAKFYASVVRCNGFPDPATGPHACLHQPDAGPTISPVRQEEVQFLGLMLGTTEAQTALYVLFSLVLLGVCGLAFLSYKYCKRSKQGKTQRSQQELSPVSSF
Chain of human sucrase (P14410 whole entry): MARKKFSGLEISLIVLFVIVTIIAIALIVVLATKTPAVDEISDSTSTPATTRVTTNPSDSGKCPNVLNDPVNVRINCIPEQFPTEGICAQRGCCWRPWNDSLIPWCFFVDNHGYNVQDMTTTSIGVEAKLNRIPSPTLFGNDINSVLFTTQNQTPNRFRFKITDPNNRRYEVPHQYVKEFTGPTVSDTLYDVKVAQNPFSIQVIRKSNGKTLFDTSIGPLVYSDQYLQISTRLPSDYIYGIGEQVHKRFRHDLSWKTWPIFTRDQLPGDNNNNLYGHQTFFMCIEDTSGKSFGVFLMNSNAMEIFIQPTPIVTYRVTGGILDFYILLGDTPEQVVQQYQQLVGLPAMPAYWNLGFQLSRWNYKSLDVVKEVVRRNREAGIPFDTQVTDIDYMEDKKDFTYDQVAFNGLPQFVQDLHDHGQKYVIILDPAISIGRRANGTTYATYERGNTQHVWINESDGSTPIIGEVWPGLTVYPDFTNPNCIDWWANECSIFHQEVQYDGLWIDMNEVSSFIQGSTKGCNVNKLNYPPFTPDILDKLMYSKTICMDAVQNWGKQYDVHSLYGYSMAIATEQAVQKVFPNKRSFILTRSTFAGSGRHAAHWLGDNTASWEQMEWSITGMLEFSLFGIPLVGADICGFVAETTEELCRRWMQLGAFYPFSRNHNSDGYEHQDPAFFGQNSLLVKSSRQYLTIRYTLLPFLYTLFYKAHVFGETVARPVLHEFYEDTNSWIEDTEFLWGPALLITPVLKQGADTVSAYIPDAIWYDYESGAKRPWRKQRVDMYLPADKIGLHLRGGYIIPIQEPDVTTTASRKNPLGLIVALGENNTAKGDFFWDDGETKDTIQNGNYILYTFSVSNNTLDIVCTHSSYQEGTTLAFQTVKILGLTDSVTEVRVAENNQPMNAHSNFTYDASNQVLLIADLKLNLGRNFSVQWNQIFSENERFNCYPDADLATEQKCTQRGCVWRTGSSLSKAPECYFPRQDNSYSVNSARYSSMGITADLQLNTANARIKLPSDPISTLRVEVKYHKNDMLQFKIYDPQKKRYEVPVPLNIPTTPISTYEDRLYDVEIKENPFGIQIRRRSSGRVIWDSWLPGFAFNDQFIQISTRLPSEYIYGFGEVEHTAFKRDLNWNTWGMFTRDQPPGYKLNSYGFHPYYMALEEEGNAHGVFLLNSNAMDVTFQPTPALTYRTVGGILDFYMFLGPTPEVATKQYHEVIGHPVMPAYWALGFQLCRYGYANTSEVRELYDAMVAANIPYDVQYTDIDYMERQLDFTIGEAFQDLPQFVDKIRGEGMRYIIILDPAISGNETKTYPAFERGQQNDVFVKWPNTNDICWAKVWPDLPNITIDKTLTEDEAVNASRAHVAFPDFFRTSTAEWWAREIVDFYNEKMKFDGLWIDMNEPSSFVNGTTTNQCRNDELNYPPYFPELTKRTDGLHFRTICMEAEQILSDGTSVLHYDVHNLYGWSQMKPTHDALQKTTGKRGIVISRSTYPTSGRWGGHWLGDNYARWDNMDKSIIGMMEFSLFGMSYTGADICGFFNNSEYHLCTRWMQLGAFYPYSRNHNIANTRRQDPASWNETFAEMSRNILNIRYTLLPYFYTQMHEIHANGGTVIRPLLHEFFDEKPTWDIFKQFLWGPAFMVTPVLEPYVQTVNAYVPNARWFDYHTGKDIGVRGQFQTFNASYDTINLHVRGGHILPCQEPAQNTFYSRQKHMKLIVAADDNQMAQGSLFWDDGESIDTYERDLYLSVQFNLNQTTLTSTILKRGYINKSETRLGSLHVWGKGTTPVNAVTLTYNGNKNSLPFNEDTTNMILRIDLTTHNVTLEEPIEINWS

Structure (SMILES): OC[C@H]1O[C@H](O[C@H]2[C@H](O)[C@@H](O)[C@H](O)O[C@@H]2CO)[C@H](O)[C@@H](O)[C@@H]1O [maltose]
- inhibition of lactose hydrolysis by human lactase (human lactase): no inhibiting effect

Structure (SMILES): O=C(CO)[C@@H](O)[C@H](O)[C@H](O)CO [fructose]
- glycemic index (GI) (plasma glucose [1]): 23
- inhibition of lactose hydrolysis by human lactase (human lactase): competitively inhibit
- GI values (plasma glucose [2]): 6
- inhibition of sucrose hydrolysis by human sucrase (human sucrase): inhibit
- inhibition of maltose hydrolysis by maltase (maltase): no inhibiting effect
- glycemic index (GI) (blood glucose): 24

Structure (SMILES): O=C[C@H](O)[C@@H](O)[C@@H](O)[C@H](O)CO [galactose]
- inhibition of rabbit maltase (rabbit maltase): no inhibition
- inhibition of rabbit sucrase (rabbit sucrase): no inhibition
- inhibition of lactose hydrolysis by human lactase (human lactase): competitively inhibit
- inhibition of sucrose hydrolysis by human sucrase (human sucrase): no inhibition
- absorption rate relative to fructose (human small intestine): ~1.2 times as fast as fructose
- inhibition of maltose hydrolysis by maltase (maltase): no inhibiting effect

Structure (SMILES): OC[C@H]1O[C@@](CO)(O[C@H]2O[C@H](CO)[C@@H](O)[C@H](O)[C@H]2O)[C@@H](O)[C@@H]1O [sucrose]
- glycemic index (GI) (plasma glucose [1]): 64
- glycemic index (GI) (plasma glucose [1]; listed as SU): 64
- inhibition of lactose hydrolysis by human lactase (human lactase): no inhibiting effect
- GI values (plasma glucose [2]): 43
- plasma glucose level relative to 200 mg/dL (plasma glucose [3]): broke above 200 mg/dL
- time of plasma glucose peak (plasma glucose [3]): 45 min
- AUC (plasma glucose [3]; 25 g in 100 g water, N=2): 6184 mg·min/dL
- AUC (plasma glucose [4]): 2935 mg·min/dL
- glycemic index (GI) (blood glucose): 63

Structure (SMILES): OC[C@H]1O[C@@H](O[C@H]2[C@H](O)[C@@H](O)C(O)O[C@@H]2CO)[C@H](O)[C@@H](O)[C@H]1O (some centres unmarked) [lactose]
- relative availability compared to glucose (rats [5]; bioassay based on plasma ketones): 0.59
- relative availability compared to glucose (rats [5]; bioassay based on weight gain): 0.57
- metabolizable energy value (rats [5]): 2.1 kcal/g
- glycemic index (GI) (plasma glucose [1]): 46
- reduction of fat content (rats [6]; ad libitum feeding, lactose 30% of diet (Février 1969)): 20%
- reduction of growth rate (rats [6]; ad libitum feeding, lactose 30% of diet vs starch control (Février 1969)): 37%
- reduction of fat content (rats [6]; equalized-growth-feeding, lactose 30% of diet (Février 1969)): 12%
- body fat lowering vs controls (rats [6]; lactose 30% of diet (Whittier et al 1935)): 38%
- body fat lowering vs controls (rats [6]; lactose 50% of diet (Baker et al 1967)): 48%
- body fat lowering vs controls (rats [6]; lactose 52% of diet (Tomarelli et al 1960)): 40%
- reduction of fat content (rats [6]; [7]): 32%
- reduction of growth rate (rats [6]; [7]): 23%
- body fat reduction (rats [6]; [8]): 30%
- body moisture increase (rats [6]; [8]): 11%
- GI values (plasma glucose [2]): 32
- glycemic index (GI) (blood glucose): 48

— patent US7560443B2, “Mixtures of fructose, sucrose and lactose as a low-calorie bulk sweetener with reduced glycemic index” (Vivalac, Inc. A Maryland Corp., priority 2002, dated 2009)
